Tests used:
[1] = test system: concanavalin A-induced hepatitis; assay: Action on concanavalin A-induced hepatitis (plasma ALT 8 hr after Con A); assay type: in vivo, female BALB/c mouse; details: therapeutic administration 3 hr after Con A injection (20 mg/kg i.v.), mouse
Description: 20 mg/kg of concanavalin A (Con A, type V, manufactured by Sigma) was intravenously administered to female BALB/c mouse (purchased from Charles River Laboratories JAPA, INC.). […] The administration time in the prophylactic administration test of pentoxifylline (manufactured by Sigma) or anti-mouse TNF-α antibody (manufactured by Genzyme-Techne) was set according to the method of Shirin et al. [Journal of Hepatology, 29, 60-67 (1998)] or Gantner et al. [Hepatology, 21, 190-198 (1995)]. The administration time in the therapeutic administration test was always set to 3 hr after Con A injection. To be specific, pentoxifylline (100 mg/kg) was intraperitoneally administered 2 hr before or 3 hr after Con A injection, anti-mouse TNF-α antibody (250 μg, was intravenously administrated 15 minutes before or 3 hr after Con A injection, and plasma SALT was similarly measured 8 hr later.
In addition, the test compound (10 mg/kg) was intravenously administrated 15 minutes before or 3 hr after Con A injection, and plasma ALT concentration was similarly measured.
The results are shown in mean±standard error.

[2] = test system: concanavalin A-induced hepatitis; details: prophylactic administration before injection of concanavalin A; mouse; non-patent references 3 and 4; cited from earlier work
[3] = test system: severe alcoholic hepatitis; details: non-patent references 1 and 2; cited from earlier work

Row | Structure (SMILES) | therapeutic effect in the hepatitis model (progress of concanavalin A-induced hepatitis, plasma ALT) [1] | inhibition of the progress of concanavalin A-induced hepatitis [2] | effectiveness for severe alcoholic hepatitis [3]
1 | CC(=O)NC1(c2ccc(CN3CCN(c4ncccn4)CC3)cc2)CC1.Cl [test compound, N-(1-(4-((4-(pyrimidin-2-yl)piperazin-1-yl)methyl)phenyl)cyclopropyl)acetamide hydrochloride] | shows a therapeutic effect |  | 
2 | CC(=O)CCCCn1c(=O)c2c(ncn2C)n(C)c1=O [pentoxifylline] | do not inhibit progress | inhibit the progress | effective
